Reference: patent US10100030B2 (Kissei Pharmaceutical Co., Ltd., priority 2013, dated 2018)

Legend:
[1] = target: human NK1 receptor (Homo sapiens (Human), UniProt P25103); assay: Inhibitory effect on human NK1 receptor (substance P-induced increase in intracellular calcium concentration); format: cell-based; details: HEK-293T; substance P 1 μM, compound 0.1 μM; human NK1 receptor-expressing 293T cells; read-out: SPRR (Substance P-Response Remaining)
Protocol: Inhibitory Effect on Human NK1 Receptor
(1) Preparation of Human NK1 Receptor-expressing Cells
Human NK1 receptor-expressing cells were prepared by the same methods as those described in 2-3 and 2-4 of Test Example 1.
(2) Study on Inhibitory Effect on Increase in Intracellular Calcium Concentration
The human NK1 receptor-expressing cells were washed with 300 μL/well of a washing solution (20 mM HEPES/Hank's Balanced Salt Solution (HBSS) […]). A fluorescent calcium indicator (Fluo-4 Direct Calcium Assay Kit, Life Technologies, containing 0.42 mM probenecid and 0.1% bovine serum albumin, prepared according to the protocol of the product) was added to the wells at 150 μL/well, and the plate was incubated at 37° C. for 30 minutes in an incubator. Then, DMSO solutions of a test compound, which were prepared at an 80-time higher concentration using 100% dimethyl sulfoxide (DMSO), were added to the wells at 2.5 μL/well (final concentrations of 0.1, 1 and 10 μM), and the solutions were mixed. Then, the plate was further incubated at 37° C. for 30 minutes in an incubator. After 30 minutes, the intracellular calcium concentrations were measured immediately.
The intracellular calcium concentrations were each measured as a fluorescent signal using FDSS (registered trademark) 7000 (Hamamatsu Photonics). A substance P (Peptide Institute, Inc.) solution which was prepared at 0.4 μM or 4 μM using an assay buffer (20 mM HEPES/Hank's Balanced Salt Solution (HBSS) pH 7.3, containing 0.1% bovine serum albumin) was added automatically to each well at 50 μL/well (final concentration of 0.1 or 1 μM) 10 seconds after starting reading, and the fluorescent signal was measured up to 120 seconds.
The intracellular calcium concentration (%) of the cells to which a test compound was added was calculated by the equation below, where the fluorescent signal of the group to which the vehicle (DMSO) was added was regarded as 100%, and the fluorescent signal before the addition of substance P was regarded as 0%. Intracellular calcium concentration(%)=(Fluorescent signal of test compound addition group)/(Fluorescent signal of vehicle addition group)×100
The intracellular calcium concentration (%) calculated was regarded as the remaining agonist activity of substance P (Substance P-Response Remaining: SPRR). In the table, Ex. No. means the Example number. SPRR (%) is the value obtained when the concentration of substance P was 1 μM and the concentration of the compound was 0.1 μM.

[2] = target: NK1 receptor (Meriones unguiculatus (Mongolian jird) (Gerbillus unguiculatus), UniProt Q5DUB1); assay: Effect on GR73632-induced foot-tapping; format: in vivo; details: 0.3 mg/kg from the jugular vein, GR73632 after four hours, male gerbil
Sequence of NK1 receptor (Q5DUB1 whole entry): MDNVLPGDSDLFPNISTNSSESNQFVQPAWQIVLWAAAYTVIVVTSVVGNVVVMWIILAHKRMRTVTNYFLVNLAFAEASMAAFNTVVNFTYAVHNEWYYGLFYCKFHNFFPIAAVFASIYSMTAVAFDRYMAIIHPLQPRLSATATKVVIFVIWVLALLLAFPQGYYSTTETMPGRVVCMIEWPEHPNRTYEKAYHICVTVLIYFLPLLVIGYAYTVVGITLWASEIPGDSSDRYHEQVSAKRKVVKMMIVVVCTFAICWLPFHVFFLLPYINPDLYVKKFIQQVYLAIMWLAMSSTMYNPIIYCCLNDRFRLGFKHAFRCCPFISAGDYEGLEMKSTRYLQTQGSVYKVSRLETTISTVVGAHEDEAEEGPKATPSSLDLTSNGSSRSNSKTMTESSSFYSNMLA
Protocol: (1) Effect on Foot-tapping
A male gerbil (Japan SLC) was anesthetized with isoflurane, and 0.3 mg/kg of a test compound was administered from the jugular vein. After four hours, GR73632 (5 pmol/5 μl), which is an NK1 receptor agonist, was administered into the cerebral ventricle at the part 1 mm lateral to and 4.5 mm below the bregma in the head, under anesthesia with isoflurane. After the administration, the gerbil was moved to an observation cage, and the foot-tapping period during five minutes after the recovery of the righting reflex was measured. The foot-tapping inhibition rate (%) of each test compound was calculated by the following equation. Foot-tapping inhibition rate (%)={1−(Foot-tapping period when test compound was administered)/(Foot-tapping period when solvent was administered)}×100 (2) Measurement of Drug Concentrations
In the table, Ex. No. means the Example number. Inhibition (%) is the foot-tapping inhibition rate, and Conc. (nM) is the drug concentration in the brain.

[3] = Ferret pharmacokinetic test; format: in vivo; details: plasma, male ferret
Protocol: Ferret Pharmacokinetic Test
The test compound solution was prepared by dissolving the test compound in a vehicle (50% N,N-dimethylformamide (Wako Pure Chemical Industries), 30% propylene glycol (Wako Pure Chemical Industries) and 4% 2-hydroxypropyl-β-cyclodextrin (Wako Pure Chemical Industries)). Under anesthesia with isoflurane 0.3 mg/kg of the test compound was intravenously administered to a male ferret (Marshall BioResources Japan) from the jugular vein. In the case of oral administration, 1 mg/kg of the test compound was orally administered to an awake animal. After the administration of the test compound, blood samples were taken sequentially from the brachial cephalic vein, and the concentrations of the test compound in the plasma were measured by a quantitative analysis using liquid chromatography-mass spectrometry (LC/MS).
In the tables, Ex. No. means the Example number. CLtot and Vss are the total body clearance and the steady-state volume of distribution, based on the plasma concentrations in the case of intravenous administration, respectively, Cmax, AUC and BA are the maximum plasma test compound concentration, the area under the plasma test compound concentration-time curve and the bioavailability, in the case of oral administration, respectively, […]

[4] = target: hERG channel (Homo sapiens (Human), UniProt Q12809); assay: Evaluation of hERG current (whole-cell patch clamp); format: cell-based; details: 10 μM, application for 10 minutes, n = 3, average ± standard error
Sequence of hERG channel (Q12809 whole entry): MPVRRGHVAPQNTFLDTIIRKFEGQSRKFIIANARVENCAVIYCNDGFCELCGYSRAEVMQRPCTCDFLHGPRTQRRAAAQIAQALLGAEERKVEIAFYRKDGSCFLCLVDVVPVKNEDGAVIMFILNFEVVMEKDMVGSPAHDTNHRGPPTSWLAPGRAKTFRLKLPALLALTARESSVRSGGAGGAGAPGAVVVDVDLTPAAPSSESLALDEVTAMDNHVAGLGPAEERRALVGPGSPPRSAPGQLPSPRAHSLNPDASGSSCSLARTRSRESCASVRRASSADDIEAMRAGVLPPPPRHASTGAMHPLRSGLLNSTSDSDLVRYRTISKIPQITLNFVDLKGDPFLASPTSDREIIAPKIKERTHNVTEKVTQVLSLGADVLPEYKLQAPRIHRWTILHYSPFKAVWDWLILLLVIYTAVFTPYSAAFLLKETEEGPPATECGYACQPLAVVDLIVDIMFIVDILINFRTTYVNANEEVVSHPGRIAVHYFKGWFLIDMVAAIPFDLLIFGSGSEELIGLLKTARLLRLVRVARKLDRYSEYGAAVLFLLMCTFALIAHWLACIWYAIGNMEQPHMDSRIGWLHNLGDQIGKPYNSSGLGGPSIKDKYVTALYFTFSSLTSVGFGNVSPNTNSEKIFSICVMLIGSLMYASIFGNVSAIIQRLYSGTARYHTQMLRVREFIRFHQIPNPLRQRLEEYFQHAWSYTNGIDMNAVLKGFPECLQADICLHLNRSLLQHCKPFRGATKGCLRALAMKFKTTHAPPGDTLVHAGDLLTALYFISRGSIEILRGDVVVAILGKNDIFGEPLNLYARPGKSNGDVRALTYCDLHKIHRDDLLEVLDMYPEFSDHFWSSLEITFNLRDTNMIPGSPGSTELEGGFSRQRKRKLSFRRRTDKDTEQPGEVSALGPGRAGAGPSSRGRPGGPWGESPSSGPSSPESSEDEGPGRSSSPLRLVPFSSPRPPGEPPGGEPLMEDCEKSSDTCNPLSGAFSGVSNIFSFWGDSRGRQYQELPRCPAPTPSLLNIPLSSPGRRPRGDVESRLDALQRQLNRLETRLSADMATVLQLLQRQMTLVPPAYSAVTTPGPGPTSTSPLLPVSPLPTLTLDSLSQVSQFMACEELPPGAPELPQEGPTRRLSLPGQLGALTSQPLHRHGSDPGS
Protocol: Evaluation of hERG Current
The hERG current was measured by a whole-cell method using a patch clamp system, where a cover glass on which hERG channel-expressing human embryonic kidney (HEK) 293 cells were seeded was placed on a perfusion bath and a perfusion solution was caused to flow. The change in the hERG channel-derived current caused by a pulse protocol (holding potential of −80 mV, depolarization pulse of +20 mV for 1.9 seconds, repolarization pulse of −50 mV for 2 seconds, stimulated at intervals of 15 seconds) of data acquisition/analysis software, pCLAMP9 (Axon Instruments, Inc.), was measured. The measurement conditions were a flow rate of about 1.5 mL/min and a temperature of about 33° C. Two wave forms just before applying the test compound and two wave forms immediately after the application for 10 minutes were analyzed, and the statistical analysis was performed. The value before the application of the test compound was regarded as 100%, and the change rate based on the value was determined.
In the table. Ex. No. means the Example number, and the value is the average±the standard error.

Sequence of human NK1 receptor (P25103 whole entry): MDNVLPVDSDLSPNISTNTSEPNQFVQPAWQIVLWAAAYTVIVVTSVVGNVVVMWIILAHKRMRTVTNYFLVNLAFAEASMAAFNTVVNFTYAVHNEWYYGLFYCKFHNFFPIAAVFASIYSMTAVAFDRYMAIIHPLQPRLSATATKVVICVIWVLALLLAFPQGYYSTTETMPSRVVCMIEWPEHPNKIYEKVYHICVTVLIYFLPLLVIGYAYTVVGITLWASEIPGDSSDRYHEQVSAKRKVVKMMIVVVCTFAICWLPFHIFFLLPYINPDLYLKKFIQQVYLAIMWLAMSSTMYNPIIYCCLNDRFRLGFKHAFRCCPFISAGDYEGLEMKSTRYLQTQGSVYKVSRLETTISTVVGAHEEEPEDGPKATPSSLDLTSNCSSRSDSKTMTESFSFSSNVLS

remaining activity at 0.1 µM [1]: 28% | Inhibition (foot-tapping inhibition rate) [2]: 100% | clearance ([3]; 0.3 mg/kg intravenous, read-out: CLtot (total body clearance)): 0.75 mL/min/kg | Vd ([3]; 0.3 mg/kg intravenous, read-out: Vss (steady-state volume of distribution)): 0.336 L/kg | bioavailability ([3]; 1 mg/kg oral, read-out: BA (bioavailability)): 61% | Cmax ([3]; 1 mg/kg oral, read-out: Cmax (maximum plasma test compound concentration)): 1270 ng/mL
Compound: Cc1cc(F)ccc1-c1cc(N2CCC(CC(=O)O)CC2)ncc1N(C)C(=O)C(C)(C)c1cc(C(F)(F)F)cc(C(F)(F)F)c1 [Example 1]
hERG current, % of value before application [4]: 93.9 ± 2.7%
